Measured values as given in patent US20100184596A1, “METHOD FOR THE CONTROL OF WEEDS IN TURF” (SYNGENTA CROP PROTECTION, INC., priority 2007, published 2010).

Tests used:
Format in all cases: in vivo
[1] = tested on: Bermudagrass v. Tifway 419; experiment: Phytotoxicity via granule application (Table B3.2)
Procedure: The phytotoxicity of the compound of formula I to turfgrass species was tested. The compound was applied by distribution of granule formulations of formula I, post emergence, to turfgrass species at two rates. All treatments were watered-in 1 day after application. Percentage phytotoxicity assessments were taken at various timepoints.
Two granule formulations were made and tested. Granule A is an inert granule formulation, comprising 99.06 wt % DG Lite 150 granules, 0.14 wt % compound of formula I, 0.50 wt % Sunspray 6N, and 0.30 wt % HiSil 233. The compound of formula I was added to the DG Lite granules while blending in a Continental Rollo-mixer.
Sunspray 6N oil was then sprayed onto the granules, and HiSil added to dry excess liquid and improve granule flowability. The granules were blended in the mixer for 20-30 minutes until homogeneous, and passed through a −12/+60 mesh to remove over and under sized particles.
Granule B is a fertiliser granule formulation, comprising 54.65 wt % urea, 6.63 wt % triple super phosphate, 4.95 wt % potassion chloride, 9.91 wt % huber clay, 7.22 wt % HiSil 233, 0.16 wt % compound of formula I, […] agnique ME 181, 2.07 wt % stepfac 8180, and 11.98 wt % water. […] The remaining HiSil was added and granules dried at 40-60° C., to remove excess liquid. Finally, the granules were passed through a −12/+60 mesh to remove over and under sized particles.

turfgrass = experiment: Example B4, conclusion in words; conditions: in combination with a safener
Procedure: The phytotoxicity to turfgrass of the compound of formula I in combination with various safeners was tested. The combinations were applied by post emergence spray application. Percentage phytotoxicity assessments were taken at various timepoints. The safeners tested in these trials were cloquintocet-mexyl, cyprosulfamide, a compound of formula 2.3, and isoxadifen-ethyl.

[2] = tested on: Digitaria ischaemum (smooth crabgrass); experiment: Weed control via post emergence spray, in bluegrass/fescue mix (Table B5.7)
Procedure: (§1) The weed control efficacy of the compound of formula I was tested. The compound was applied via post emergence spray to a range of weeds, at various rates and spray treatment treatment regimes. Percentage weed control assessments were taken at various timepoints.

[3] = tested on: Bermudagrass v. Tifway 419; experiment: Phytotoxicity via post emergence spray application (Table B2.3)
Procedure: The phytotoxicity of the compound of formula I to turfgrass species was tested. The compound was applied via post emergence spray to a range of warm and cool season turfgrass species at various rates and spray treatment treatment regimes. Percentage phytotoxicity assessments were taken at various timepoints.

Paspalum sp. = experiment: Weed control via post emergence spray, in common centipedegrass (Table B5.1)
Procedure: as §1

COCCOCc1nc(C(F)(F)F)ccc1C(=O)C1=C(O)C2CCC(C2)C1=O (stereo not drawn) [Formula I, 4-Hydroxy-3-[2-(2-methoxyethoxymethyl)-6-trifluoromethylpyridine-3-carbonyl]-bicyclo[3.2.1]oct-3-en-2-one]
% phytotoxicity ([1]; Granule A (inert), 112 g ai/ha, 7 DAT): 6.00%
% phytotoxicity ([1]; Granule A (inert), 112 g ai/ha, 11 DAT): 0.00%
% phytotoxicity ([1]; Granule A (inert), 280 g ai/ha, 7 DAT): 23.30%
% phytotoxicity ([1]; Granule A (inert), 280 g ai/ha, 11 DAT): 8.30%
% phytotoxicity ([1]; Granule A (inert), 280 g ai/ha, 15 DAT): 2.30%
% phytotoxicity ([1]; Granule A (inert), 280 g ai/ha, 20 DAT): 0.00%
% phytotoxicity ([1]; Granule B (fertiliser), 112 g ai/ha, 7 DAT): 16.70%
% phytotoxicity ([1]; Granule B (fertiliser), 280 g ai/ha, 7 DAT): 33.30%
phytotoxicity in combination with a safener, in words (turfgrass): reduces the level of phytotoxicity to turfgrass
% control ([2]; 10 g ai/ha, 7 DAT): 0.00%
% control ([2]; 10 g ai/ha, 14 DAT): 0.00%
% control ([2]; 10 g ai/ha, 22 DAT): 0.00%
% control ([2]; 10 g ai/ha, 29 DAT): 0.00%
% control ([2]; 10 g ai/ha, 46 DAT): 1.25%
% control ([2]; 20 g ai/ha, 7 DAT): 0.00%
% control ([2]; 20 g ai/ha, 14 DAT): 2.50%
% control ([2]; 20 g ai/ha, 22 DAT): 5.00%
% control ([2]; 20 g ai/ha, 29 DAT): 3.75%
% control ([2]; 20 g ai/ha, 46 DAT): 7.50%
% control ([2]; 40 g ai/ha, 7 DAT): 0.00%
% control ([2]; 40 g ai/ha, 14 DAT): 0.00%
% control ([2]; 40 g ai/ha, 22 DAT): 2.50%
% control ([2]; 40 g ai/ha, 29 DAT): 8.75%
% control ([2]; 40 g ai/ha, 46 DAT): 30.00%
% control ([2]; 80 g ai/ha, 7 DAT): 0.00%
% control ([2]; 80 g ai/ha, 14 DAT): 0.00%
% control ([2]; 80 g ai/ha, 22 DAT): 5.00%
% control ([2]; 80 g ai/ha, 29 DAT): 17.50%
% control ([2]; 80 g ai/ha, 46 DAT): 51.25%
% control ([2]; 160 g ai/ha, 7 DAT): 0.00%
% control ([2]; 160 g ai/ha, 14 DAT): 6.25%
% control ([2]; 160 g ai/ha, 22 DAT): 8.75%
% control ([2]; 160 g ai/ha, 29 DAT): 20.00%
% control ([2]; 160 g ai/ha, 46 DAT): 70.00%
% phytotoxicity ([3]; 1 appl, 140 g ai/ha, 8 DAT): 36.25%
% phytotoxicity ([3]; 1 appl, 140 g ai/ha, 14 DAT): 28.75%
% phytotoxicity ([3]; 1 appl, 140 g ai/ha, 29 DAT): 1.25%
% phytotoxicity ([3]; 1 appl, 140 g ai/ha, 35 DAT): 0.00%
% phytotoxicity ([3]; 1 appl, 140 g ai/ha, 43 DAT): 0.00%
% phytotoxicity ([3]; 1 appl, 140 g ai/ha, 51 DAT): 0.00%
% phytotoxicity ([3]; 1 appl, 140 g ai/ha, 60 DAT): 0.00%
% phytotoxicity ([3]; 1 appl, 280 g ai/ha, 8 DAT): 35.00%
% phytotoxicity ([3]; 1 appl, 280 g ai/ha, 14 DAT): 52.50%
% phytotoxicity ([3]; 1 appl, 280 g ai/ha, 29 DAT): 1.25%
% phytotoxicity ([3]; 1 appl, 280 g ai/ha, 35 DAT): 0.00%
% phytotoxicity ([3]; 1 appl, 280 g ai/ha, 43 DAT): 0.00%
% phytotoxicity ([3]; 1 appl, 280 g ai/ha, 51 DAT): 0.00%
% phytotoxicity ([3]; 1 appl, 280 g ai/ha, 60 DAT): 0.00%
% phytotoxicity ([3]; 2 appl, 140 g ai/ha, 8 DAT): 26.25%
% phytotoxicity ([3]; 2 appl, 140 g ai/ha, 14 DAT): 31.25%
% phytotoxicity ([3]; 2 appl, 140 g ai/ha, 29 DAT): 0.00%
% phytotoxicity ([3]; 2 appl, 140 g ai/ha, 35 DAT): 30.00%
% phytotoxicity ([3]; 2 appl, 140 g ai/ha, 43 DAT): 18.75%
% phytotoxicity ([3]; 2 appl, 140 g ai/ha, 51 DAT): 7.50%
% phytotoxicity ([3]; 2 appl, 140 g ai/ha, 60 DAT): 0.00%
% phytotoxicity ([3]; 2 appl, 280 g ai/ha, 8 DAT): 36.25%
% phytotoxicity ([3]; 2 appl, 280 g ai/ha, 14 DAT): 52.50%
% phytotoxicity ([3]; 2 appl, 280 g ai/ha, 29 DAT): 3.75%
% phytotoxicity ([3]; 2 appl, 280 g ai/ha, 35 DAT): 28.75%
% phytotoxicity ([3]; 2 appl, 280 g ai/ha, 43 DAT): 22.50%
% phytotoxicity ([3]; 2 appl, 280 g ai/ha, 51 DAT): 8.75%
% phytotoxicity ([3]; 2 appl, 280 g ai/ha, 60 DAT): 0.00%
% control (Paspalum sp.; 1 appl, 140 g ai/ha, 5 DAT): 16.67%
% control (Paspalum sp.; 1 appl, 140 g ai/ha, 13 DAT): 60.00%
% control (Paspalum sp.; 1 appl, 140 g ai/ha, 21 DAT): 55.00%
% control (Paspalum sp.; 1 appl, 140 g ai/ha, 27 DAT): 46.67%
% control (Paspalum sp.; 1 appl, 140 g ai/ha, 35 DAT): 21.67%
% control (Paspalum sp.; 1 appl, 140 g ai/ha, 42 DAT): 6.67%
% control (Paspalum sp.; 1 appl, 140 g ai/ha, 61 DAT): 13.33%
% control (Paspalum sp.; 1 appl, 280 g ai/ha, 5 DAT): 21.67%
% control (Paspalum sp.; 1 appl, 280 g ai/ha, 13 DAT): 71.67%
% control (Paspalum sp.; 1 appl, 280 g ai/ha, 21 DAT): 70.00%
% control (Paspalum sp.; 1 appl, 280 g ai/ha, 27 DAT): 60.00%
% control (Paspalum sp.; 1 appl, 280 g ai/ha, 35 DAT): 43.33%
% control (Paspalum sp.; 1 appl, 280 g ai/ha, 42 DAT): 20.00%
% control (Paspalum sp.; 1 appl, 280 g ai/ha, 61 DAT): 18.33%
% control (Paspalum sp.; 2 appl, 140 g ai/ha, 5 DAT): 20.00%
% control (Paspalum sp.; 2 appl, 140 g ai/ha, 13 DAT): 61.67%
% control (Paspalum sp.; 2 appl, 140 g ai/ha, 21 DAT): 61.67%
% control (Paspalum sp.; 2 appl, 140 g ai/ha, 27 DAT): 56.67%
% control (Paspalum sp.; 2 appl, 140 g ai/ha, 35 DAT): 83.33%
% control (Paspalum sp.; 2 appl, 140 g ai/ha, 42 DAT): 81.67%
% control (Paspalum sp.; 2 appl, 140 g ai/ha, 61 DAT): 70.00%
% control (Paspalum sp.; 2 appl, 280 g ai/ha, 5 DAT): 20.00%
% control (Paspalum sp.; 2 appl, 280 g ai/ha, 13 DAT): 68.33%
% control (Paspalum sp.; 2 appl, 280 g ai/ha, 21 DAT): 68.33%
% control (Paspalum sp.; 2 appl, 280 g ai/ha, 27 DAT): 58.33%
% control (Paspalum sp.; 2 appl, 280 g ai/ha, 35 DAT): 91.67%
% control (Paspalum sp.; 2 appl, 280 g ai/ha, 42 DAT): 95.00%
% control (Paspalum sp.; 2 appl, 280 g ai/ha, 61 DAT): 81.67%
